Measured values: patent US11046714B2, “2,2-difluorodioxolo A2A receptor antagonists” (Merck Sharp & Dohme Corp., priority 2013, dated 2021)

Biological target: human A2A receptor (Homo sapiens (Human), UniProt P29274)
Assay: competition binding assay using Scintillation Proximity technology
Settings: membranes from CHO-K1 cells expressing the human A2a receptor; 2.0 nM tritiated compound; Cheng-Prusoff
Procedure, shortened: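 Membranes (1.0 μg) from CHO-K1 cells expressing human A2A were treated with adenosine deaminase, then incubated 1 h at room temperature with compound (3000–0.15 nM) and 2.0 nM tritiated SCH-type ligand on WGA SPA beads in PBS plus 10 mM MgCl2. Nonspecific binding was defined with 1 μM CGS 15943. Ki was derived from EC50 via Cheng-Prusoff.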

Chain of human A2A receptor (P29274 whole entry): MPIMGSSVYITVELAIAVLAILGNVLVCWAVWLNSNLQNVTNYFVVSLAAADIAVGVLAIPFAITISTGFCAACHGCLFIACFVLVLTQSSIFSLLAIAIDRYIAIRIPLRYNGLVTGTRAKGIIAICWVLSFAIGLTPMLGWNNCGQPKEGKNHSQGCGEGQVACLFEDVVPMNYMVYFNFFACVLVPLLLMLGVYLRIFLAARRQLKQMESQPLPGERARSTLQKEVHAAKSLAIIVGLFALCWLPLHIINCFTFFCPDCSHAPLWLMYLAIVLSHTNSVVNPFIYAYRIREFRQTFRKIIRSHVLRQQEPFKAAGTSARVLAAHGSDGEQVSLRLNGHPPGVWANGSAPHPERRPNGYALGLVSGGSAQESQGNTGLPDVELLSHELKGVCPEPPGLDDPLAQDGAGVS

| SMILES | Ki [nM] |
| --- | --- |
| Nc1nc2c3c(ccc2c2nc([C@@H]4CCCN(CC(F)F)C4)nn12)OC(F)(F)O3 [Example 139, (R)-8-(1-(2,2-difluoroethyl)piperidin-3-yl)-2,2-difluoro-[1,3]dioxolo[4,5-h][1,2,4]triazolo[1,5-c]quinazolin-5-amine] | 1.5 |
| COC(=O)C(Cc1nc2c3ccc4c(c3nc(N)n2n1)OC(F)(F)O4)C(=O)OC [Example 148, dimethyl [(5-amino-2,2-difluoro[1,3]dioxolo[4,5-h][1,2,4]triazolo[1,5-c]quinazolin-8-yl)methyl]propanedioate] | 2 |
| Nc1nc2c3c(ccc2c2nc(CC(CO)CO)nn12)OC(F)(F)O3 [Example 149, 2-[(5-amino-2,2-difluoro[1,3]dioxolo[4,5-h][1,2,4]triazolo[1,5-c]quinazolin-8-yl)methyl]propane-1,3-diol] | 2.7 |
| Nc1nc2c3c(ccc2c2nc(CC(CCl)CCl)nn12)OC(F)(F)O3 [Example 150, 8-[3-chloro-2-(chloromethyl)propyl]-2,2-difluoro[1,3]dioxolo[4,5-h][1,2,4]triiazolo[1,5-c]quinazolin-5-amine] | 2.3 |
| Nc1nc2c3c(ccc2c2nc(CC4CN(C5CCC5)C4)nn12)OC(F)(F)O3 [Example 151, 8-[(1-cyclobutylazetidin-3-yl)methyl]-2,2-difluoro[1,3]dioxolo[4,5-h][1,2,4]triazolo[1,5-c]quinazolin-5-amine] | 65 |
| CC(F)(F)CN1CC(Cc2nc3c4ccc5c(c4nc(N)n3n2)OC(F)(F)O5)C1 [Example 152, 8-{[1-(2,2-difluoropropyl)azetidin-3-yl]methyl}-2,2-difluoro[1,3] dioxolo[4,5-h][1,2,4]triazolo[1,5-c]quinazolin-5-amine] | 5.5 |
| Nc1nc2c3c(ccc2c2nc(CC4CN(c5ccccn5)C4)nn12)OC(F)(F)O3 [Example 153, 2,2-difluoro-8-[(1-pyridin-2-ylazetidin-3-yl)methyl][1,3] dioxolo[4,5-h][1,2,4]triazolo [1,5-c]quinazolin-5-amine] | 170 |
| Nc1nc2c3c(ccc2c2nc(C[C@H](N)C4CC4)nn12)OC(F)(F)O3 [Example 158, 8-[(2S)-2-amino-2-cycloproplethyl]-2,2-difluoro[1,3]dioxolo[4,5-h][1,2,4]triazolo[1,5-c]quinazolin-5-amine] | 19 |
| Nc1nc2c3c(ccc2c2nc(C[C@@H](N)C4CC4)nn12)OC(F)(F)O3 [Example 159, 8-[(2R)-2-amino-2-cyclopropylethyl]-2,2-difluoro[1,3]dioxolo[4,5-h][1,2,4]triazolo[1,5-c]quinazolin-5-amine] | 180 |
| Nc1nc2c3c(ccc2c2nc([C@H]4CC[C@H](N5CCCC(F)(F)C5)C4)nn12)OC(F)(F)O3 [Example 160, 8-[(1S,3S)-3-(3,3-difluoropiperidin-1-yl)cyclopentyl]-2,2-difluoro[1,3]dioxolo[4,5-h][1,2,4]triazolo[1,5-c]quinazolin-5-amine] | 16 |
| Nc1nc2c3c(ccc2c2nc([C@H]4CC[C@@H](N5CCCC(F)(F)C5)C4)nn12)OC(F)(F)O3 [Example 161, 8-[(1S,3R)-3-(3,3-difluoropiperidin-1-yl)cyclopentyl]-2,2-difluoro[1,3]dioxolo[4,5-h][1,2,4]triazolo[1,5-c]quinazolin-5-amine] | 32 |
